ChEMBL document CHEMBL3301361, “Experimental in vitro DMPK and physicochemical data on a set of publicly disclosed compounds”
Converted amounts (≈) assume the structure as drawn.

Assays:
in vitro [1] = settings: SD, HW or BN, rat, plasma
in vitro [2] = settings: Beagle, dog, plasma
in vitro [3] = settings: human, plasma
physchem [4] = settings: octan-1-ol/water, pH 7.4, LogD7.4
in vitro [5] = settings: human
physchem [6] = settings: pH 7.4 buffer
in vitro [7] = settings: human, hepatocytes
physchem [8] = experiment: physchem
in vitro [9] = settings: hepatocytes

Row | SMILES | fraction unbound at 5 h (in vitro [1]) | fraction unbound at 5 h (in vitro [2]) | logD (physchem [4]) | fraction unbound at 5 h (in vitro [3]; PPB) | other results
1 | CCOc1cc2ncc(C(N)=O)c(Nc3cc(C)ccc3F)c2cc1N1CCN(C)CC1 | 0.107 | 0.365 | – | – | –
2 | CN(C)CCCN1c2ccccc2CCc2ccccc21 [IMIPRAMINE] | 0.173 | 0.0437 | – | – | fraction unbound at 5 h (in vitro [3]): 0.121
3 | Cc1ccc2c(c1)c(-c1cc(C)nc3ccccc13)c(C)n2CC(=O)O | – | 0.0133 | 2.88 | 0.004 | microsomal CLint (in vitro [5]; liver microsomes): < 3 µL/min/mg
4 | N#Cc1ccccc1C[C@@H](C(=O)O)N1CCC(CN2CCC(Oc3ccc(Cl)c(Cl)c3)CC2)CC1 | 0.224 | 0.0661 | – | – | solubility thermodynamic (physchem [6]): 288 µM (≈ 149 µg/mL)
5 | CN(C)CCN1CCN(c2cc(C(=O)NC[C@H]3CC[C@H](CNC(=O)OC(C)(C)C)CC3)c3ccccc3n2)CC1 | – | 0.0293 | – | – | –
6 | CC(C)Cc1nn(C)c(=O)c2c(SCCCO)n(Cc3cccc4ccccc34)cc12 | – | 0.0013 | – | 0.0027 | –
7 | CC(C)n1c(/C=C/C(O)CC(O)CC(=O)O)c(-c2ccc(F)cc2)c2ccccc21 (configuration not stated) [FLUVASTATIN] | – | 0.0028 | – | – | fraction unbound at 5 h (in vitro [3]): 0.0048
8 | COc1ncc(-c2cccc3c2C[C@H](NC(=O)c2ccc(COCC(F)(F)F)nc2)CO3)cn1 | – | 0.0705 | – | 0.0366 | solubility thermodynamic (physchem [6]): 158 µM (≈ 75.2 µg/mL)
9 | CC(C)(C)NC(=O)NCCN1CCC(O)(CNC(=O)c2cc(Cl)cc(Cl)c2)CC1 | 0.232 | 0.36 | – | 0.232 | –
10 | C[C@H](CO)Nc1nc(SCc2cccc(Cl)c2F)nc2[nH]c(=O)sc12 | – | 0.0005 | 3.53 | – | solubility thermodynamic (physchem [6]): 1 µM (≈ 0.401 µg/mL)
11 | Cc1oc(CN2CCNCC2)cc1C(=O)NCC12CC3CC(CC(C3)C1)C2 | – | 0.437 | 1.03 | 0.148 | –
12 | CC(C)(C)NC(=O)NCCN1CCC(CNC(=O)c2cc(Cl)cc(Cl)c2)CC1 | 0.17 | 0.11 | – | 0.11 | –
13 | CCCc1nc(C(C)(C)O)c(C(=O)O)n1Cc1ccc(-c2ccccc2-c2nnn[nH]2)cc1 [OLMESARTAN] | – | 0.0119 | – | – | –
14 | O=C(NC12CC3CC(CC(C3)C1)C2)OCCNC1CCCCC1 | 0.129 | 0.16 | – | 0.11 | –
15 | O=C(O)CCn1c2c(c3ccccc31)C[C@H](NS(=O)(=O)c1ccc(F)cc1)CC2 [RAMATROBAN] | 0.0328 | 0.0437 | – | 0.0274 | –
16 | OC[C@H]1C[C@@H](n2nnc3c(N[C@@H]4C[C@H]4c4ccc(F)c(F)c4)nc(SCCC(F)(F)F)nc32)[C@H](O)[C@@H]1O | – | 0.002 | 3.99 | 0.0015 | solubility thermodynamic (physchem [6]): 7.2 µM (≈ 3.93 µg/mL)
17 | CCOc1cc2ncc(C(N)=O)c(Nc3cccc(Cl)c3F)c2cc1N1CCN(C)CC1 | 0.134 | 0.204 | – | 0.0705 | –
18 | Cc1ccc(NC(=O)c2cccc(C(C)(C)C#N)c2)cc1Nc1ccc2ncn(C)c(=O)c2c1 | 0.5 | 0.004 | – | 0.0039 | –
19 | Cc1cc(Nc2nc(N[C@@H](C)c3ccc(F)cn3)c(C#N)nc2C)n[nH]1 | 0.19 | 0.262 | – | 0.173 | –
20 | CCCNC(=O)NS(=O)(=O)c1ccc(Cl)cc1 [CHLORPROPAMIDE] | – | 0.142 | -0.33 | 0.04 | –
21 | CC(C)(C)OC(=O)NC[C@H]1CC[C@H](CNC(=O)c2cc(N3CCC(CCO)CC3)nc3ccccc23)CC1 | 0.0099 | 0.0084 | – | 0.007 | –
22 | CC(C)(C)NC(=O)NCCN1CCN(CC(=O)Nc2cc(Cl)cc(Cl)c2)CC1 | – | 0.0556 | – | 0.0521 | –
23 | NC(=O)c1cnc(N[C@H]2CCCNC2)c2cc(-c3ccccc3)sc12 | 0.224 | 0.0366 | – | – | –
24 | Cc1cc(F)ccc1Oc1cccc2c(=O)cc(N3CCOCC3)[nH]c12 | 0.0854 | 0.0088 | – | – | –
25 | CCOc1cc2nnc(C(N)=O)c(Nc3ccc(C)cc3F)c2cc1N1CCN(C)CC1 | 0.0633 | 0.062 | – | 0.016 | –
26 | C[C@H]1CN(c2cc(N(CCO)Cc3cccc4ccccc34)[nH]c(=O)n2)CCO1 | 0.0948 | 0.299 | – | 0.16 | –
27 | Cc1c(Cl)ccc(OC2CCN(C3CCN(C(=O)c4cccc(S(C)(=O)=O)c4)CC3)CC2)c1Cl | – | 0.035 | 3.33 | 0.035 | microsomal CLint (in vitro [5]; liver microsomes): 13.5 µL/min/mg
28 | N#Cc1ccc2ccc(=O)n(CCN3CC[C@@H](NCc4cc5c(cn4)OCCO5)[C@@H](O)C3)c2c1 | 0.471 | 0.602 | 0.45 | – | –

Row | SMILES | fraction unbound at 5 h (in vitro [1]) | fraction unbound at 5 h (in vitro [2]) | logD (physchem [4]) | fraction unbound at 5 h (in vitro [3]; PPB) | other results
29 | Cc1c(Sc2ccc(Cl)cc2)c2c(S(C)(=O)=O)cccc2n1CC(=O)O | – | 0.0256 | 0.58 | 0.035 | microsomal CLint (in vitro [5]; microsomes): < 3 µL/min/mg
30 | CCCSc1nc(N[C@@H]2C[C@H]2c2ccccc2)c2nnn([C@@H]3C[C@H](O)[C@@H](O)[C@H]3O)c2n1 | – | 0.0066 | 3.97 | – | solubility thermodynamic (physchem [6]): 1.1 µM (≈ 0.487 µg/mL); microsomal CLint (in vitro [5]; liver microsomes): < 3 µL/min/mg
31 | O=C(NCC12CC3CC(CC(C3)C1)C2)c1cc(CN2C[C@@H]3C[C@H]2CN3)ccc1Cl | – | 0.114 | 1.45 | 0.0968 | microsomal CLint (in vitro [5]; liver microsomes): 13 µL/min/mg
32 | CC(C)(C)NC(=O)NCCN1CCC(CNC(=O)c2cc(Cl)cc(Cl)c2)C1 (configuration not stated) | 0.139 | 0.0909 | – | 0.0968 | –
33 | C[C@H](CO)Nc1nc(SCc2cccc(F)c2F)nc2[nH]c(=O)cnc12 | – | 0.028 | 3.1 | 0.0114 | solubility thermodynamic (physchem [6]): 3.5 µM (≈ 1.33 µg/mL)
34 | COc1ccc(NC(=O)c2ccc(Cn3ccnn3)c3ccccc23)c(C(=O)NCC2CCOCC2)n1 | – | 0.028 | – | – | –
35 | COc1ccc2c(c1)c(CC(=O)O)c(C)n2-c1ccnc2cc(Cl)ccc12 | – | 0.0183 | 1.68 | 0.0099 | microsomal CLint (in vitro [5]; liver microsomes): < 3 µL/min/mg
36 | CCCn1c(=O)[nH]c(=O)c2[nH]cnc21 [ENPROFYLLINE] | 0.212 | 0.392 | – | 0.329 | –
37 | Cc1cc(-c2ccc(Cl)c(C(=O)NCC3(O)CCCCCC3)c2)nn1C[C@H](O)CN | 0.309 | – | 0.57 | 0.304 | hepatocyte CLint (in vitro [7]): < 3 µL/min/1e6 cells; pKa (physchem [8]): 8.6; microsomal CLint (in vitro [5]; liver microsomes): < 3 µL/min/mg; hepatocyte CLint (in vitro [9]): < 3 µL/min/1e6 cells
38 | COC(=O)C1=C(C)NC(C)=C(C(=O)OC)C1c1ccccc1[N+](=O)[O-] [NIFEDIPINE] | 0.0023 | 0.0736 | – | – | fraction unbound at 5 h (in vitro [3]): 0.0383
39 | C[S+]([O-])Cc1ccc(C(=O)Nc2ccc(OCCOCCO)nc2C(=O)NCC2CCC2)c2ccccc12 (configuration not stated) | 0.0343 | 0.0581 | – | 0.0499 | –
40 | N#Cc1ccc2ccc(=O)n(CCN3CC[C@H](NCc4cc5c(cn4)OCCO5)[C@H](O)C3)c2c1 | 0.734 | 0.608 | 0.46 | – | –
41 | CCOc1noc2cc(OCCC3CCN(c4ccc(C)nn4)CC3)ccc12 | 0.0015 | 0.0031 | – | 0.0014 | –
42 | CC(C)(C)S(=O)(=O)CCCN1CCN(CC(=O)NC23CC4CC(CC(C4)C2)C3)CC1 | 0.309 | 0.289 | – | 0.349 | –
43 | CCNC(=O)Nc1nc2cc(-c3cccnc3)cc(-c3ncccc3F)c2[nH]1 | 0.028 | 0.04 | – | 0.0136 | –
44 | CNC(=C[N+](=O)[O-])NCCSCc1ccc(CN(C)C)o1 [RANITIDINE] | – | 0.711 | -0.95 | – | –
45 | OC[C@H](Nc1ncc(Cl)c(Nc2cc(C3CC3)n[nH]2)n1)c1ccc(F)cc1 | – | 0.0499 | 3.75 | 0.0437 | –
46 | C[C@H](CO)Nc1nc(SCc2cccc(F)c2F)nc2nc(N)sc12 | – | 0.0366 | 3.29 | 0.0196 | solubility thermodynamic (physchem [6]): 8.1 µM (≈ 3.11 µg/mL)
47 | CC(C)Cn1c(=O)n(C)c(=O)c2c(SCCCO)n(Cc3cccc4ccccc34)cc21 | – | 0.0034 | 4.36 | – | –
48 | COc1cc2c(cc1OC)C(=O)C(CC1CCN(Cc3ccccc3)CC1)C2 (configuration not stated) [DONEPEZIL] | 0.339 | 0.613 | – | 0.105 | –
49 | CNc1cc2[nH]c(=O)n(-c3ccc(NC(=O)NS(=O)(=O)c4ccc(Cl)s4)cc3)c(=O)c2cc1F [ELINOGREL] | – | 0.0069 | – | 0.0042 | –
50 | CCNC(=O)[C@H]1C[C@@](F)(c2ccc(CN3CCCC3)c(F)c2)C1 [PF-03654746] | 0.772 | 0.807 | – | – | –
51 | CCCCNc1nc(SCCC)nc2c1nnn2[C@@H]1C[C@H](CO)[C@@H](O)[C@H]1O | – | 0.0467 | 3.07 | 0.024 | microsomal CLint (in vitro [5]; microsomes): 6 µL/min/mg
52 | Cc1c(CC(=O)O)c2cc(F)ccc2n1S(=O)(=O)c1ccc(S(C)(=O)=O)cc1 | – | 0.0521 | -0.44 | – | –
53 | CCCSc1nc(N)c2ncn([C@@H]3O[C@H](CO)[C@@H](O)[C@H]3O)c2n1 | – | 0.591 | – | 0.483 | –
54 | CC(C)Cn1c(=O)n(C)c(=O)c2c(C(=O)N3CC[C@@H](O)C3)c(Cc3c[nH]c4ccccc34)sc21 | – | 0.443 | 2.35 | 0.0854 | microsomal CLint (in vitro [5]; liver microsomes): 107 µL/min/mg
55 | OCCO[C@H]1C[C@@H](n2nnc3c(N[C@@H]4C[C@H]4c4ccc(F)c(F)c4)nc(SCCC(F)(F)F)nc32)[C@H](O)[C@@H]1O | – | 0.0046 | 4.17 | 0.0015 | –
